Experimental data as given in patent publication US9656988B2 (Pharmacyclics LLC, priority 2013, dated 2017).
Read-outs that look alike come from different tables or passages of the source.

Target: BTK (Homo sapiens (Human), UniProt Q06187)
Assay: Btk in vitro inhibitory activity (one of Method A TR-FRET, Method B electrophoretic mobility shift, Method C radiometric filter binding)
Assay type: biochemical
[1] = determined using one of the methods of Example 355a, 355b and 355c, read-out: BTK IC50

Sequence of BTK (Q06187 whole entry): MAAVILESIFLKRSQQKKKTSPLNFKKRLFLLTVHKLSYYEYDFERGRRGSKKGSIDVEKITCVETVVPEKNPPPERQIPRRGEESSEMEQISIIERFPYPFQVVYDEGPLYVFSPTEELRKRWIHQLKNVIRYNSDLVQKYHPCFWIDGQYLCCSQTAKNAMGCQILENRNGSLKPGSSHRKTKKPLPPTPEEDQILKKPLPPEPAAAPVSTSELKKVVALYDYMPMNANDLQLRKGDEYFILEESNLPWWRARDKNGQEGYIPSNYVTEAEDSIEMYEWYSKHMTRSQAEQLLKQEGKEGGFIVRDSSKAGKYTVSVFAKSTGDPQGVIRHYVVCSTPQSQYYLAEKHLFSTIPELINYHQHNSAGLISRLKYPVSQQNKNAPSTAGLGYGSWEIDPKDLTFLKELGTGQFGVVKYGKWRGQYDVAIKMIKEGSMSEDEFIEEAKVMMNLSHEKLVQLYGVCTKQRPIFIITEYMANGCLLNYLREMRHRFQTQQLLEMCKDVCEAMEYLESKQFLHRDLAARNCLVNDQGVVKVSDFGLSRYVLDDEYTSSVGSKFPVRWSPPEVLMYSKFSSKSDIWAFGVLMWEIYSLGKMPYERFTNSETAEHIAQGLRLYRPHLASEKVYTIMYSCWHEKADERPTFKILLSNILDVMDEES

IC50 [1] [nM]	IC50 (read-out: Btk (IC50)) [nM]	IC50 (Btk (IC50)) [nM]	Compound	IC50 [nM]
< 10	< 10	–	CN(C)C(=O)N[C@@H]1CCCN(c2cnc(C(N)=O)c(Nc3ccc(N4CCN(C5CCCC5)CC4)cc3)n2)C1 [Example 215, (R)-3-(4-(4-cyclopentylpiperazin-1-yl)phenylamino)-5-(3-(3,3-dimethylureido)piperidin-1-yl)pyrazine-2-carboxamide]	–
10 to 100	–	–	CN(C)C(=O)N[C@@H]1CCCN(c2cnc(C(N)=O)c(Nc3cnn(C4CC4)c3)n2)C1 [Example 216, (R)-3-(1-cyclopropyl-1H-pyrazol-4-ylamino)-5-(3-(3,3-dimethylureido)piperidin-1-yl)pyrazine-2-carboxamide]	–
10 to 100	–	–	CN(C)C(=O)N[C@@H]1CCCN(c2cnc(C(N)=O)c(Nc3cnn(C4CCCC4)c3)n2)C1 [Example 217, (R)-3-(1-cyclopentyl-1H-pyrazol-4-ylamino)-5-(3-(3,3-dimethylureido)piperidin-1-yl)pyrazine-2-carboxamide]	–
< 10	–	–	CN(C)C(=O)N[C@@H]1CCCN(c2cnc(C(N)=O)c(Nc3cnn(C4CCN(C5CCCC5)CC4)c3)n2)C1 [Example 218, (R)-3-(1-(1-cyclopentylpiperidin-4-yl)-1H-pyrazol-4-ylamino)-5-(3-(3,3-dimethylureido)piperidin-1-yl)pyrazine-2-carboxamide]	–
10 to 100	–	10 to 100	CN(C)C(=O)N[C@@H]1CCCN(c2cnc(C(N)=O)c(Nc3cnn(C4CCN(C(=O)C5CC5)CC4)c3)n2)C1 [Example 219, (R)-3-(1-(1-(cyclopropanecarbonyl)piperidin-4-yl)-1H-pyrazol-4-ylamino)-5-(3-(3,3-dimethylureido)piperidin-1-yl)pyrazine-2-carboxamide]	–
< 10	< 10	–	CN(C)C(=O)N[C@@H]1CCCN(c2cnc(C(N)=O)c(Nc3ccc(C4(C)CCNCC4)cc3)n2)C1 [Example 221, (R)-5-(3-(3,3-dimethylureido)piperidin-1-yl)-3-(4-(4-methylpiperidin-4-yl)phenylamino)pyrazine-2-carboxamide]	–
< 10	< 10	–	CN(C)C(=O)N[C@@H]1CCCN(c2cnc(C(N)=O)c(Nc3ccc(C4(C)CCN(C(=O)N(C)C)CC4)cc3)n2)C1 [Example 223, (R)-3-(4-(1-(dimethylcarbamoyl)-4-methylpiperidin-4-yl)phenylamino)-5-(3-(3,3-dimethylureido)piperidin-1-yl)pyrazine-2-carboxamide]	–
< 10	–	–	CCC(=O)N1CCC(C)(c2ccc(Nc3nc(N4CCC[C@@H](NC(=O)N(C)C)C4)cnc3C(N)=O)cc2)CC1 [Example 224]	–
< 10	–	10 to 100	CN(C)C(=O)N(C)[C@@H]1CCCN(c2cnc(C(N)=O)c(Nc3ccc(C4CCN(C5CCCC5)CC4)cc3)n2)C1 [Example 225, (R)-3-(4-(1-cyclopentylpiperidin-4-yl)phenylamino)-5-(3-(1,3,3-trimethylureido)piperidin-1-yl)pyrazine-2-carboxamide]	–
10 to 100	–	10 to 100	CN(C)C(=O)N1CCC(c2ccc(Nc3nc(N4CCC[C@@H](N(C)C(=O)N(C)C)C4)cnc3C(N)=O)cc2)CC1 [Example 226, (R)-3-(4-(1-(dimethylcarbamoyl)piperidin-4-yl)phenylamino)-5-(3-(1,3,3-trimethylureido)piperidin-1-yl)pyrazine-2-carboxamide]	–
10 to 100	–	10 to 100	CCC(=O)N1CCC(c2ccc(Nc3nc(N4CCC[C@@H](N(C)C(=O)N(C)C)C4)cnc3C(N)=O)cc2)CC1 [Example 227, (R)-3-(4-(1-propionylpiperidin-4-yl)phenylamino)-5-(3-(1,3,3-trimethylureido)piperidin-1-yl)pyrazine-2-carboxamide]	–
10 to 100	–	10 to 100	C[C@@H]1[C@H](N)CCCN1c1cnc(C(N)=O)c(Nc2ccc(C3CCN(C4CCCC4)CC3)cc2)n1 [Example 230, 5-((2R,3R)-3-amino-2-methylpiperidin-1-yl)-3-(4-(1-cyclopentylpiperidin-4-yl)phenylamino)pyrazine-2-carboxamide]	–
100 to 1000	–	100 to 1000	C[C@H]1[C@H](N)CCCN1c1cnc(C(N)=O)c(Nc2ccc(C3CCN(C4CCCC4)CC3)cc2)n1 [Example 231, 5-((2S,3R)-3-amino-2-methylpiperidin-1-yl)-3-(4-(1-cyclopentylpiperidin-4-yl)phenylamino)pyrazine-2-carboxamide]	–
< 10	< 10	–	C[C@@H]1[C@H](NC(=O)N(C)C)CCCN1c1cnc(C(N)=O)c(Nc2ccc(C3CCN(C4CCCC4)CC3)cc2)n1 [Example 232, 3-(4-(1-cyclopentylpiperidin-4-yl)phenylamino)-5-((2R,3R)-3-(3,3-dimethylureido)-2-methylpiperidin-1-yl)pyrazine-2-carboxamide]	–
100 to 1000	–	100 to 1000	C[C@H]1[C@H](NC(=O)N(C)C)CCCN1c1cnc(C(N)=O)c(Nc2ccc(C3CCN(C4CCCC4)CC3)cc2)n1 [Example 233, 3-(4-(1-cyclopentylpiperidin-4-yl)phenylamino)-5-((2S,3R)-3-(3,3-dimethylureido)-2-methylpiperidin-1-yl)pyrazine-2-carboxamide]	–
< 10	< 10	–	CC[C@@H]1[C@H](NC(=O)N(C)C)CCCN1c1cnc(C(N)=O)c(Nc2ccc(C3CCN(C4CCC4)CC3)cc2)n1 [Example 236, 3-(4-(1-cyclobutylpiperidin-4-yl)phenylamino)-5-((2R,3R)-3-(3,3-dimethylureido)-2-ethylpiperidin-1-yl)pyrazine-2-carboxamide]	–
< 10	–	< 10	C[C@@H]1[C@H](NC(=O)N(C)C)CCCN1c1cnc(C(N)=O)c(Nc2ccc(C3CCN(C4CC4)CC3)cc2)n1 [Example 237, 3-(4-(1-cyclopropylpiperidin-4-yl)phenylamino)-5-((2R,3R)-3-(3,3-dimethylureido)-2-methylpiperidin-1-yl)pyrazine-2-carboxamide]	–
< 10	< 10	–	C[C@@H]1[C@H](NC(=O)N(C)C)CCCN1c1cnc(C(N)=O)c(Nc2ccc(C3CCN(C4CCC4)CC3)cc2)n1 [Example 238, 3-(4-(1-cyclobutylpiperidin-4-yl)phenylamino)-5-((2R,3R)-3-(3,3-dimethylureido)-2-methylpiperidin-1-yl)pyrazine-2-carboxamide]	–
< 10	< 10	–	C[C@@H]1[C@H](NC(=O)N(C)C)CCCN1c1cnc(C(N)=O)c(Nc2ccc(C3(C(F)(F)F)CC3)cc2)n1 [Example 239, 5-((2R,3R)-3-(3,3-dimethylureido)-2-methylpiperidin-1-yl)-3-(4-(1-(trifluoromethyl)cyclopropyl)phenylamino)pyrazine-2-carboxamide]	–
< 10	< 10	–	C[C@@H]1[C@H](NC(=O)N(C)C)CCCN1c1cnc(C(N)=O)c(Nc2ccc(C3(C#N)CC3)cc2)n1 [Example 240, 3-(4-(1-cyanocyclopropyl)phenylamino)-5-((2R,3R)-3-(3,3-dimethylureido)-2-methylpiperidin-1-yl)pyrazine-2-carboxamide]	–
< 10	–	–	Cc1cc(Nc2nc(N3CCC[C@@H](NC(=O)N(C)C)[C@H]3C)cnc2C(N)=O)sn1 [Example 242, 5-((2R,3R)-3-(3,3-dimethylureido)-2-methylpiperidin-1-yl)-3-(3-methylisothiazol-5-ylamino)pyrazine-2-carboxamide]	–
< 10	–	–	CC(C)Oc1ccc(Nc2nc(N3CCC[C@@H](NC(=O)N(C)C)[C@H]3C)cnc2C(N)=O)cc1 [Example 243, 5-((2R,3R)-3-(3,3-dimethylureido)-2-methylpiperidin-1-yl)-3-(4-isopropoxyphenylamino)pyrazine-2-carboxamide]	–
< 10	–	–	C[C@@H]1[C@H](NC(=O)N(C)C)CCCN1c1cnc(C(N)=O)c(Nc2ccc(S(C)(=O)=O)cc2)n1 [Example 244, 5-((2R,3R)-3-(3,3-dimethylureido)-2-methylpiperidin-1-yl)-3-(4-(methylsulfonyl)phenylamino)pyrazine-2-carboxamide]	–

Compound	IC50 [1] [nM]	IC50 (read-out: Btk (IC50)) [nM]	IC50 (Btk (IC50)) [nM]	IC50 [nM]
CN(C)C(=O)N[C@@H]1CCCN(c2cnc(C(N)=O)c(Nc3ccc(C4(C)CCN(C5CCCC5)CC4)cc3)n2)C1 [Example 222, (R)-3-(4-(1-cyclopentyl-4-methylpiperidin-4-yl)phenylamino)-5-(3-(3,3-dimethylureido)piperidin-1-yl)pyrazine-2-carboxamide]	< 10	< 10	–	–
CN(C)C(=O)N(C)[C@@H]1CCCN(c2cnc(C(N)=O)c(Nc3ccc(C4CCN(S(C)(=O)=O)CC4)cc3)n2)C1 [Example 228, (R)-3-(4-(1-(methylsulfonyl)piperidin-4-yl)phenylamino)-5-(3-(1,3,3-trimethylureido)piperidin-1-yl)pyrazine-2-carboxamide]	10 to 100	–	–	10 to 100
CN(C)C(=O)N(C)[C@@H]1CCCN(c2cnc(C(N)=O)c(Nc3ccc(N4CCS(=O)(=O)CC4)cc3)n2)C1 [Example 229, (R)-3-(4-(1,1-dioxothiomorpholino)phenylamino)-5-(3-(1,3,3-trimethylureido)piperidin-1-yl)pyrazine-2-carboxamide]	10 to 100	–	–	10 to 100
C[C@@H]1[C@H](NC(=O)N(C)C)CCCN1c1cnc(C(N)=O)c(Nc2ccc(C3(C(N)=O)CC3)cc2)n1 [Example 241, 3-(4-(1-carbamoylcyclopropyl)phenylamino)-5-((2R,3R)-3-(3,3-dimethylureido)-2-methylpiperidin-1-yl)pyrazine-2-carboxamide]	< 10	–	–	–
C[C@@H]1[C@H](NC(=O)N(C)C)CCCN1c1cnc(C(N)=O)c(Nc2ccc(C3(C)CCN(C4CCC4)CC3)cc2)n1 [Example 246, 3-(4-(1-cyclobutyl-4-methylpiperidin-4-yl)phenylamino)-5-((2R,3R)-3-(3,3-dimethylureido)-2-methylpiperidin-1-yl)pyrazine-2-carboxamide]	< 10	< 10	–	–
C[C@@H]1[C@H](NC(=O)N(C)C)CCCN1c1cnc(C(N)=O)c(Nc2ccc(C3(C)CCN(C4CC4)CC3)cc2)n1 [Example 247, 3-(4-(1-cyclopropyl-4-methylpiperidin-4-yl)phenylamino)-5-((2R,3R)-3-(3,3-dimethylureido)-2-methylpiperidin-1-yl)pyrazine-2-carboxamide]	< 10	< 10	–	–
